From US8586555B2, “Immunomodulatory compositions, formulations, and methods for use thereof” (Dynavax Technologies Corporation, priority 2001, dated 2013)

How the values were obtained:
Format in all cases: cell-based
[1] = system: human peripheral blood mononuclear cells (hPBMC); experiment: human PBMC assay, Example 4 (oligos and PLGA premixed 15 minutes); conditions: for IFN-α Mean / IFN-γ Mean: mean of donors 28044, 28045
Description: (§1) Hexameric oligonucleotides were tested for immunomodulatory activity alone and complexed with lactic acid/glycolic acid copolymer microcarrier beads using a human peripheral blood mononuclear cells (hPBMC) assay. Peripheral blood was collected from healthy volunteers by venipuncture using heparinized syringes. Blood was layered onto a FICOLL® (Amersham Pharmacia Biotech) cushion and centrifuged. hPBMCs, located at the FICOLL® interface, were collected, then washed twice with cold phosphate buffered saline (PBS). The cells were resuspended and cultured in 48 well plates at 2×10^6 cells/mL at 37° C. in RPMI 1640 with 10% heat-inactivated human AB serum plus 50 units/mL penicillin, 50 μg/mL streptomycin, 300 μg/mL glutamine, 1 mM sodium pyruvate, and 1×MEM non-essential amino acids (NEAA).
(§2) Oligonucleotides were tested as single agents, or in combination with PLGA microspheres (unmodified or cationic). All oligonucleotides contained 100% phosphorothioate linkages and were tested at 20 μg/ml. The PLGA microcarriers were used at 250 μg/ml. When oligos were tested with PLGA microcarriers, the oligo and the microcarriers were added at the same time to the culture. The cells were cultured in the in the presence of test samples for 24 hours, then cell-free medium was collected from each well and assayed for IFN-γ and IFN-α concentration. Two different oligonucleotides were used as controls: a first oligonucleotide known to have immunostimulatory activity (a 22mer oligonucleotide containing an ISS (“ISS+,” 5′-[…]-3′(SEQ ID NO:2)) and a second oligonucleotide of similar sequence but lacking immunostimulatory activity (“ISS−,” 5′-[…]-3′ (SEQ ID NO:1)). SAC (PANSORBIN® CalBiochem, 1/5000 dilution) and a untreated culture were used as additional positive and negative controls, respectively. SAC contains Staph. aureus (Cowan I) cell material. All samples were assayed in duplicate.
(§3) IFN-γ and IFN-α were assayed using CYTOSCREEN™ ELISA kits from BioSource International, Inc., according to the manufacturer's instructions.
Additional hexameric and pentameric oligonucleotides were tested for immunomodulatory activity in the PBMC assay. Oligonucleotides 6-6 (5′-TCGAGA-3′), 6-8 (5′-GTCGAC-3′), 6-9 (5′-GTCGTT-3′), 6-2 (5′-TCGTTT-3′), 6-3 (5′-TTCGTT-3′), 6-4 (5′-TTTCGT-3′), 5-1 (5′-TCGTC-3′), and 5-2 (5′-TCGTT-3′) were tested alone or in combination with cationic PLGA as described in Example 3 except that the oligos and PLGA were premixed for 15 minutes room temperature before addition to the cultures. The test articles were assayed using PBMC isolated from donors 28044 and 28045.

[2] = system: human peripheral blood mononuclear cells (hPBMC); experiment: human PBMC assay, Example 5 (96 well plates, premixed); conditions: for IFN-α Mean / IFN-γ Mean: mean of donors 28051-28054
Description: as §1, §2, §3
(§4) The immunomodulatory activity of the oligonucleotides used in Examples 3 and 4 was confirmed with the human PBMC assay using PBMCs from an additional four donors (donors 28051-28054). Oligonucleotides were tested alone or in combination with cationic PLGA as described in Example 3, except that 96 well plates were used instead of 48 well plates and the oligonucleotides were premixed with the cationic microspheres at room temperature for 15 minutes before they were added to the culture, rather than being added simultaneously to the culture.

[3] = system: human peripheral blood mononuclear cells (hPBMC); experiment: human PBMC assay, Example 6
Description: as §1, §2, §3, §4
Additional oligonucleotides were tested for immunomodulatory activity in the human PBMC assay. Oligonucleotides were tested alone or in combination with cPLGA as described in Example 5.
Additional oligonucleotides were tested using hPBMCs from volunteers 154-157 using the same assay. Results, which are shown in Table 7, confirm the activity of oligonucleotides fitting the formula 5′-X1TCGX2-3′, where the oligonucleotide is a 3-6mer, X1 is zero or one nucleotide and X2 is zero to three nucleotides.

[4] = system: human peripheral blood mononuclear cells (hPBMC); experiment: human PBMC assay, Example 7 (oligo 20 μg/ml, cPLGA 100 μg/ml); conditions: for IFN-α Mean / IFN-γ Mean: mean of donors 28115-28118
Description: as §1, §2, §3, §4
Additional oligonucleotides, some incorporating modified bases, were tested for immunomodulatory activity in the human PBMC assay. Oligonucleotides were tested alone or in combination with cPLGA as described in Example 5. The oligonucleotides were premixed with the cationic PLGA microspheres for 15 minutes at room temperature at concentrations of 20 μg/ml and 100 μg/ml, respectively.

[5] = system: human peripheral blood mononuclear cells (hPBMC); experiment: human PBMC assay, Example 3 (oligo and PLGA added at the same time, 48 well plates); conditions: for IFN-α / IFN-γ: oligo 20 μg/ml, PLGA 250 μg/ml, 24 hours
Description: as §1, §2, §3

Substance 5′-TCGTTT-3′ [Oligonucleotide 6-2] has an IFN-α ([1]; donor 28044) of 0 pg/mL, an IFN-γ ([1]; donor 28044) of 30 pg/mL and an IFN-α ([1]; donor 28045) of 0 pg/mL. For the same substance, the IFN-γ ([1]; donor 28045) was 0 pg/mL, the “IFN-α Mean” value [1] was 0 pg/mL and the “IFN-γ Mean” value [1] was 15 pg/mL. The “immunomodulatory activity” value ([2]; delivered alone) was “inactive”, the “immunomodulatory activity” value ([2]; delivered as IMO/MC complexes (cPLGA)) was “highly active” and the IFN-α ([2]; donor 28051) was 0 pg/mL. For the same substance, the IFN-γ ([2]; donor 28051) was 1 pg/mL, the IFN-α ([2]; donor 28052) was 2 pg/mL and the IFN-γ ([2]; donor 28052) was 0 pg/mL. It also gave an IFN-α ([2]; donor 28053) of 10 pg/mL, an IFN-γ ([2]; donor 28053) of 3 pg/mL and an IFN-α ([2]; donor 28054) of 0 pg/mL. The IFN-γ ([2]; donor 28054) was 1 pg/mL, the “IFN-α Mean” value [2] was 3 pg/mL and the “IFN-γ Mean” value [2] was 1 pg/mL. The “immunomodulatory activity” value ([3]; delivered as oligonucleotide/MC complex (cPLGA)) was “highly active”, the IFN-α ([3]; donor 28075) was 36 pg/mL and the IFN-γ ([3]; donor 28075) was 8 pg/mL. For the same substance, the IFN-α ([3]; donor 28076) was 6 pg/mL, the IFN-γ ([3]; donor 28076) was 18 pg/mL and the IFN-α ([3]; donor 28077) was 66 pg/mL. It also gave an IFN-γ ([3]; donor 28077) of 5 pg/mL, an IFN-α ([3]; donor 28078) of 101 pg/mL and an IFN-γ ([3]; donor 28078) of 14 pg/mL. For the same substance, the “IFN-α Mean” value ([3]; mean of donors 28075-28078) was 53 pg/mL, the “IFN-γ Mean” value ([3]; mean of donors 28075-28078) was 11 pg/mL and the IFN-α ([4]; donor 28115) was 0 pg/mL. It also gave an IFN-γ ([4]; donor 28115) of 3 pg/mL, an IFN-α ([4]; donor 28116) of 0 pg/mL and an IFN-γ ([4]; donor 28116) of 0 pg/mL. The IFN-α ([4]; donor 28117) was 0 pg/mL, the IFN-γ ([4]; donor 28117) was 5 pg/mL and the IFN-α ([4]; donor 28118) was 0 pg/mL. The IFN-γ ([4]; donor 28118) was 0 pg/mL, the “IFN-α Mean” value [4] was 0 pg/mL and the “IFN-γ Mean” value [4] was 2 pg/mL.

With “5′-TGACTGTGAACCTTAGAGATGA-3′ (DNA, all phosphorothioate, methylation of C not given here) [ISS−, reference compound]” the IFN-α ([5]; donor 28033) was 0 pg/mL, the IFN-γ ([5]; donor 28033) was 3 pg/mL and the IFN-α ([5]; donor 28034) was 31 pg/mL. The IFN-γ ([5]; donor 28034) was 8 pg/mL, the “IFN-α Mean” value ([5]; mean of donors 28033, 28034) was 15 pg/mL and the “IFN-γ Mean” value ([5]; mean of donors 28033, 28034) was 5 pg/mL. The IFN-α ([1]; donor 28044) was 0 pg/mL, the IFN-γ ([1]; donor 28044) was 410 pg/mL and the IFN-α ([1]; donor 28045) was 0 pg/mL. For the same substance, the IFN-γ ([1]; donor 28045) was 51 pg/mL, the “IFN-α Mean” value [1] was 0 pg/mL and the “IFN-γ Mean” value [1] was 231 pg/mL. For the same substance, the IFN-α ([2]; donor 28051) was 0 pg/mL, the IFN-γ ([2]; donor 28051) was 5 pg/mL and the IFN-α ([2]; donor 28052) was 3 pg/mL. It also gave an IFN-γ ([2]; donor 28052) of 2 pg/mL, an IFN-α ([2]; donor 28053) of 1 pg/mL and an IFN-γ ([2]; donor 28053) of 3 pg/mL. For the same substance, the IFN-α ([2]; donor 28054) was 5 pg/mL, the IFN-γ ([2]; donor 28054) was 2 pg/mL and the “IFN-α Mean” value [2] was 2 pg/mL. The “IFN-γ Mean” value [2] was 3 pg/mL, the IFN-α ([3]; donor 28075) was 41 pg/mL and the IFN-γ ([3]; donor 28075) was 15 pg/mL. The IFN-α ([3]; donor 28076) was 23 pg/mL, the IFN-γ ([3]; donor 28076) was 15 pg/mL and the IFN-α ([3]; donor 28077) was 54 pg/mL. The IFN-γ ([3]; donor 28077) was 12 pg/mL, the IFN-α ([3]; donor 28078) was 27 pg/mL and the IFN-γ ([3]; donor 28078) was 16 pg/mL. For the same substance, the “IFN-α Mean” value ([3]; mean of donors 28075-28078) was 36 pg/mL, the “IFN-γ Mean” value ([3]; mean of donors 28075-28078) was 15 pg/mL and the “IFN-α Mean” value ([3]; mean of volunteers 154-157) was 0 pg/mL. For the same substance, the “IFN-γ Mean” value ([3]; mean of volunteers 154-157) was 43 pg/mL, the IFN-α ([3]; volunteer 154) was 0 pg/mL and the IFN-γ ([3]; volunteer 154) was 0 pg/mL. It also gave an IFN-α ([3]; volunteer 155) of 0 pg/mL, an IFN-γ ([3]; volunteer 155) of 17 pg/mL and an IFN-α ([3]; volunteer 156) of 0 pg/mL. For the same substance, the IFN-γ ([3]; volunteer 156) was 58 pg/mL, the IFN-α ([3]; volunteer 157) was 0 pg/mL and the IFN-γ ([3]; volunteer 157) was 98 pg/mL. It also gave an IFN-α ([4]; donor 28115) of 0 pg/mL, an IFN-γ ([4]; donor 28115) of 20 pg/mL and an IFN-α ([4]; donor 28116) of 0 pg/mL. The IFN-γ ([4]; donor 28116) was 22 pg/mL, the IFN-α ([4]; donor 28117) was 0 pg/mL and the IFN-γ ([4]; donor 28117) was 334 pg/mL. The IFN-α ([4]; donor 28118) was 0 pg/mL, the IFN-γ ([4]; donor 28118) was 14 pg/mL and the “IFN-α Mean” value [4] was 0 pg/mL. For the same substance, the “IFN-γ Mean” value [4] was 98 pg/mL.
